The text below walks through data of patent publication US20060292203A1, “Methods and compositions for the treatment of ocular disorders” (TargeGen, Inc., priority 2005, published 2006).

What is called solubility is how much of the substance goes into solution per volume. Read a low solubility as little dissolved substance.

Values after ≈ are worked out from the molar mass of the structure shown.

One series is described as follows: Water solubility (pH 5). The settings on record: for solubility: pH 5, water; for Water solubility: pH 5.
The nature of series [1]: Pharmacokinetic study of Compound (XI) after topical administration (Example 3). It counts as in vivo, Dutch-Belted rabbits. The settings on record: eyedrops 1% API, 50 μL BID for 3 days; rabbit. The protocol:
A formulation was prepared as in Example 1 but using Compound (XI) instead of Compound (V). Compound (XI) was administered as eyedrops (1% API, 50 μL) BID for 3 days. On day 3 following a single dose, rabbits were sacrificed, enucleated and various ocular tissues (retina, choroid, cornea, etc) collected. Concentrations in the tissues were measured using LC/MS/MS, following tissue homogenization and acetonitrile precipitation. PK data analysis was conducted using WINNONLIN program. […] Half-life was long at approximately 8 hours.

Series [2] is described as follows: Pharmacokinetic study of Compounds (X) and (VIII) after topical administration (Example 12). The series is classed as in vivo, Dutch-Belted rabbits. The settings on record: Compound (V) after prodrug Compound (VIII) delivered topically to the eye. The protocol:
Formulations prepared as described in Example 9 and 11 were used. Compounds (X) and (VIII) were administered as eyedrops (50 μL) either as QD for three days or BID for three days as the dose regimen.
The retinal concentrations varied depending on the formulation used. The cLogD at pH of 7.4 for Compound (VIII) is 0.14 while for Compound (X) is 3.54.

Series [3] can be described thus: Pharmacokinetic study of Compound (VI) after topical administration (Example 8). It counts as in vivo, Lone Evans rat pups. The settings on record: Compound (V) analysed after single 10 μL eyedrops of 0.2, 0.5 or 1% Compound (VI). The protocol:
Formulations prepared as described in Example 5 were used. Rat pups were administered single 10 μL eyedrops of 0.2, 0.5 or 1% Compound (VI) dose. Eye tissues were collected at various time points for Compound (V) analysis using LC/MS/MS. […] Half-life of Compound (V) ranged from 5 to 8 hours in the choroids.

The test system of series [4] is VEGF-induced retinal permeability. Nature of the series: Ocular model of retinal edema following eyedrops (Evans Blue albumin leakage). The settings on record: mice. It counts as in vivo. The protocol: Formulations prepared as described in Examples 20 and 21 were used in these studies. Topical eyedrops of Compound (V) (one time or three times a day), or Compound (VI) (single eye drop) were administered to mice. After 1-2 hr, VEGF was injected intravitreally into mouse eyes. An hour later Evans Blue dye was injected intravenously into the tail vein. About 4 hrs later animals were sacrificed, blood was collected and eyes were enucleated. VEGF-induced retinal permeability as measured by albumin leakage in the eye was measured.

A short description of series [5]: Pharmacokinetic study of Compound (V) after topical administration (Example 4). It counts as in vivo, Dutch-Belted rabbits. The settings on record: 50 μL topical, 0.5% dose, QD for one day; rabbit. The protocol:
A formulation containing Compound (V) prepared as described in Example 1 was used in this experiment. 50 μL of Compound (V) (QD for one day) was administered topically to rabbits at 0.5% dose. Ocular tissues such as choroid, retina, sclera and cornea were collected and concentrations measured. Choroidal concentrations were 4 fold higher than retinal concentration.

Series [6] is described as follows: Pharmacokinetic study of Compound (VI) after topical administration (Example 14). The following applies: BID for three days vs QD for three days, 1% dose. The series is classed as in vivo, Dutch-Belted rabbits. The protocol:
A formulation prepared as described in example 13 was used. Compound (VI) was administered topically (50 μL) to rabbits either as BID for three days or QD for three days dose regimen (1% dose).

Series [7] deals with choroidal neovascularization. Briefly: Laser-induced choroidal neovascularization model. The series is classed as in vivo, C57BL/6 mice. The settings on record: for Reduction of area of neovascularization compared to control: topical. As to the method: After 2 weeks, mice were perfused with fluorescein-labeled dextran, and choroidal flatmounts were analyzed using image analysis software to recognize fluorescently stained neovascularization and calculate the total area of neovascularization per retina.

The nature of series [8]: Phospholipid affinity PC:Drug (molar). It counts as physicochemical. The following applies: molar ratio PC:Drug.

In “Water solubility (pH 5)” (water), `Cc1cc(-c2cc(O)ccc2Cl)cc2nnc(Nc3ccc(OCCN4CCCC4)cc3)nc12` [V] gave a solubility of under 100 µg/mL. Besides, the “Concentrations in the choroid” value in series [1] is listed as “at the μM level”. Further, the “Amount of API recovered from the retina and the choroid” value in series [2] is reported as “No measurable amount”. Moreover, in series [3], the “Concentrations in the retina, dose dependence” value was “non-linear” and the “Mean AUC in the choroid, dose dependence” value was “linear”. Moreover, the “Inhibition of retinal leak” value in series [4] (QD eyedrop administration) is 50%. For the same compound, in series [4] (TID eyedrop dosing), the “Inhibition of retinal leak” value is about 80%. In addition, in series [5], the “Choroidal concentration relative to retinal concentration” value was 4 fold and the “Half-life (comparison)” value is “about two times longer”.
Tropicamide [reference compound] registered a Water solubility in “Water solubility (pH 5)” of under 1 mg/mL.
In turn, `Cc1cc(-c2cc(OC(=O)C(C)C)ccc2Cl)cc2nnc(Nc3ccc(OCCN4CCCC4)cc3)nc12` [XX] showed a solubility in “Water solubility (pH 5)” (water) of under 100 µg/mL.
For the compound `Cc1cc(-c2cc(OC(=O)c3ccccc3)ccc2Cl)cc2nnc(Nc3ccc(OCCN4CCCC4)cc3)nc12` [VI], in the series “Water solubility (pH 5)” (water), the solubility is under 100 µg/mL. Further, the “Back of the eye concentrations, dependence on dose regimen” value in [6] is listed as “linear”. Besides, the “Inhibition of retinal leak” value in series [4] (QD eyedrop administration) was found to be 100%. Also, the “Reduction of area of neovascularization compared to control” value in [7] (50 μg per eye) is “approximately 47%”; in [7] (150 μg per eye), “approximately 35%”. In addition, the “Effect on choroidal neovascularization (FIG. 2)” value in series [7] (topical administration) is “prevents choroidal neovascularization”.
The compound `Cc1cc(-c2cc(OC(=O)c3ccccc3)ccc2Cl)cc2nnc(Nc3ccc(S(=O)(=O)NCCN4CCCC4)cc3)nc12` [XVIII] showed a solubility in the series “Water solubility (pH 5)” (water) of under 100 µg/mL.
In the case of `Cc1ccc(-c2nn(C(C)(C)C)c3ncnc(N)c23)cc1` [PP1, reference compound], the Water solubility in the series “Water solubility (pH 5)” was under 0.1 mg/mL.
In the series “Water solubility (pH 5)” (water), `Cc1cccc(C)c1-c1cc(C)c2nc(Nc3ccc(OCCN4CCCC4)cc3)nnc2c1` [IV] gave a solubility of under 100 µg/mL.
In turn, `CC(C)CCC[C@@H](C)[C@H]1CC[C@H]2[C@@H]3CC=C4C[C@@H](O)CC[C@]4(C)[C@H]3CC[C@]12C` [Cholesterol, reference compound] showed a solubility in “Water solubility (pH 5)” (water) of under 1000 µg/mL.
In the series “Water solubility (pH 5)” (water), `Cc1cc(-c2cc(OP(=O)([O-])[O-])ccc2Cl)cc2nnc(Nc3ccc(OCCN4CCCC4)cc3)nc12.[Na+].[Na+]` [XII] registered a solubility of under 100 µg/mL.
As for `Clc1ccc(Nc2nnc(Cc3ccncc3)c3ccccc23)cc1` [Vatalanib, reference compound], the solubility in the series “Water solubility (pH 5)” (water) was over 2000 µg/mL. Further, the “Phospholipid affinity PC: Drug (molar)” value in series [8] is “Not stable”.
In “Water solubility (pH 5)”, `CC1(C)O[C@@H]2C[C@H]3[C@@H]4CCC5=CC(=O)C=C[C@]5(C)[C@@]4(F)[C@@H](O)C[C@]3(C)[C@]2(C(=O)CO)O1` [TAA, reference compound] registered a Water solubility of under 0.1 mg/mL.
As for `COc1ccc(Cl)c(Nc2ncnc3cc(OCC4CCN(C)CC4)c(OC)cc23)c1` [AZM475271, reference compound], the solubility in the series “Water solubility (pH 5)” (water) was under 100 µg/mL. Moreover, the “Phospholipid affinity PC: Drug (molar)” value in series [8] is 50.73.
In the series “Water solubility (pH 5)” (water), `Brc1c(NC2=NCCN2)ccc2nccnc12` [Brimonidine, reference compound] returned a solubility of over 2000 µg/mL.
On the same count and under the same terms, with `Cc1cccc(C)c1-c1cc(C)c2nc(Nc3ccc(S(=O)(=O)NCCN4CCCC4)cc3)nnc2c1` [XIII] the figure was under 100 µg/mL.
On to `CC(C)NCC(O)COc1cccc2ccccc12` (stereo not drawn) [propanolol, reference compound], for which, in the series “Water solubility (pH 5)”, the solubility was about 100 µg/mL (≈ 386 µM).
`O=C(Nc1cnc(Nc2cccc(OCCN3CCCC3)c2)nc1)c1c(Cl)cccc1Cl` [I] displayed a solubility in the series “Water solubility (pH 5)” (water) of under 100 µg/mL.
For the compound `Cc1cc(-c2c(Cl)ccc(O)c2Cl)cc2nnc(Nc3ccc(S(=O)(=O)NCCN4CCCC4)cc3)nc12` [XVI], in the series “Water solubility (pH 5)” (water), the solubility was under 100 µg/mL.
Compound `COc1cc(Nc2c(C#N)cnc3cc(OCCCN4CCN(C)CC4)c(OC)cc23)c(Cl)cc1Cl` [SKI606, reference compound] gave a solubility in the series “Water solubility (pH 5)” (water) of under 1000 µg/mL.
Compound `CC(=O)Nc1nnc(S(N)(=O)=O)s1` [Acetazolamide, reference compound] came in with a solubility in “Water solubility (pH 5)” (water) of under 1000 µg/mL.
In the series “Water solubility (pH 5)” (water), `Cc1cc(-c2cc(O)ccc2Br)cc2nnc(Nc3ccc(S(=O)(=O)NCCN4CCCC4)cc3)nc12` [XV] registered a solubility of under 100 µg/mL.
The same measure, in the same setting: with `CC(=O)Oc1ccc(Cl)c(-c2cc(C)c3nc(Nc4ccc(OCCN5CCCC5)cc4)nnc3c2)c1` [XVII] the figure was under 100 µg/mL.
`Cc1cc(-c2cc(OC(=O)C(C)(C)C)ccc2Cl)cc2nnc(Nc3ccc(OCCN4CCCC4)cc3)nc12` [X] showed a solubility in the series “Water solubility (pH 5)” (water) of under 100 µg/mL.
In the series “Water solubility (pH 5)” (water), `Cc1ccc(C(=O)Oc2ccc(Cl)c(-c3cc(C)c4nc(Nc5ccc(OCCN6CCCC6)cc5)nnc4c3)c2)cc1` [XIX] gave a solubility of under 100 µg/mL.
On to `Cc1cc(Nc2ncc3cc(-c4c(Cl)cccc4Cl)c(=O)n(C)c3n2)ccc1F` [PD180970, reference compound], for which the Water solubility in “Water solubility (pH 5)” was <<0.1 mg/mL.
As for `Nc1nc(O)c2nc(-c3cccc(O)c3)c(-c3cccc(O)c3)nc2n1` [XXI], the solubility in the series “Water solubility (pH 5)” (water) was under 100 µg/mL.
The compound `CCN(CC)CCNC(=O)c1c(C)[nH]c(/C=C2\C(=O)Nc3ccc(F)cc32)c1C` [Su11248, reference compound] came in with a solubility in the series “Water solubility (pH 5)” (water) of over 1000 µg/mL.
On to `C=CC[C@@H]1/C=C(\C)C[C@H](C)C[C@H](OC)[C@H]2O[C@@](O)(C(=O)C(=O)N3CCCC[C@H]3C(=O)O[C@H](/C(C)=C/[C@@H]3CC[C@@H](O)[C@H](OC)C3)[C@H](C)[C@@H](O)CC1=O)[C@H](C)C[C@@H]2OC` [Tacrolimus, reference compound], for which the solubility in the series “Water solubility (pH 5)” (water) is under 100 µg/mL.
`CP(C)(=O)c1ccc(Nc2nc(C3CCCC3)nc3c2ncn3CCc2cccc(O)c2)cc1` [AP23464, reference compound] registered a Water solubility in the series “Water solubility (pH 5)” of over 0.1 mg/mL.
In the series “Water solubility (pH 5)” (water), `Cc1cc(-c2c(Cl)cccc2Cl)cc2nnc(Nc3ccc(OCCN4CCCC4)cc3)nc12` [XI] displayed a solubility of under 100 µg/mL.
In turn, `Cc1cc(-c2cc(O)ccc2Cl)cc2nnc(Nc3ccc(S(=O)(=O)NCCN4CCCC4)cc3)nc12` [VII] registered a solubility in “Water solubility (pH 5)” (water) of under 100 µg/mL.
